According to patent US9409905B2, “Antibacterial compounds and methods for use” (PTC THERAPEUTICS, INC., priority 2011, dated 2016):
Values after ≈ are worked out from the molar mass of the structure shown.

Key:
[1] = system: Pseudomonas aeruginosa (P. aeruginosa) 27853; assay: Antibacterial activity, MIC (Table 5); assay type: cell-based; conditions: P. aeruginosa 27853, read-out: MIC, 27853
How it was run: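 Activity was measured by microbroth dilution. The MIC, in μg/mL, is the lowest drug concentration that prevents macroscopically visible growth under the test conditions.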

[2] = system: Escherichia coli (E. coli) BAS849; assay: Antibacterial activity, microbroth dilution MIC (Table 1); assay type: cell-based; conditions: microbroth dilution, super sensitive Gram-negative E. coli BAS849, read-out: MIC, BAS849
How it was run: (§1)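 Each strain is exposed to test compound in a microbroth dilution series; visible growth is scored macroscopically, and the lowest growth-free concentration is recorded as MIC in μg/mL.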

[3] = system: Staphylococcus aureus (S. aureus) 29213; assay: as above; assay type: cell-based; conditions: microbroth dilution, Gram-positive S. aureus 29213, read-out: MIC, 29213
How it was run: as §1

[4] = system: Acinetobacter baumannii (A. baumannii) BAA747; assay: Antibacterial activity, MIC (Table 4); assay type: cell-based; conditions: A. baumannii BAA747, read-out: MIC, BAA747
How it was run: (§2)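 Activity was measured by microbroth dilution. The MIC, in μg/mL, is the lowest drug concentration that prevents macroscopically visible growth under the test conditions. The resistant strains are multi-drug resistant clinical isolates.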

[5] = system: A. baumannii MXX2240; assay: Antibacterial activity, MIC, resistant strain (Table 4); assay type: cell-based; conditions: Acinetobacter baumannii, MXX2240; resistant A. baumannii MMX2240, multi-drug resistant clinical isolate; read-out: MIC, MMX2240
How it was run: as §2

[6] = system: K. pneumoniae MXX1232; assay: as above; assay type: cell-based; conditions: Klebsiella pneumoniae, MXX1232; resistant K. pneumoniae MMX1232, multi-drug resistant clinical isolate; read-out: MIC, MMX1232
How it was run: as §2

[7] = system: E. coli ELZ4000; assay: Antibacterial activity, MIC, multi-drug resistant clinical isolate (Table 3); assay type: cell-based; conditions: Escherichia coli, ELZ4000, read-out: MIC ELZ4000
Source text: (§3) The antibacterial activity from a microbroth dilution method may be presented as the minimum inhibitory concentration (MIC in μg/mL). The MIC value is the lowest concentration of drug which prevents macroscopically visible growth under test conditions.
(§4) Antibacterial activity of test compounds against E. coli ELZ4000 and E. coli ELZ4251 multi-drug resistant clinical isolates is shown in Table 3.

[8] = system: E. coli ELZ4251; assay: as above; assay type: cell-based; conditions: Escherichia coli
Source text: as §3, §4

[9] = system: E. coli LZ3111; assay: Antibacterial activity, MIC, quinolone resistant strain (Table 2); assay type: cell-based; conditions: Escherichia coli, LZ3111, read-out: MIC LZ3111
How it was run: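 Microbroth dilution method; MIC (μg/mL) is the lowest drug concentration preventing macroscopically visible growth under test conditions.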

[10] = system: E. coli 25922; assay: Antibacterial activity, microbroth dilution MIC (Table 1); assay type: cell-based, Escherichia coli; conditions: Escherichia coli; microbroth dilution; control Gram-negative E. coli 25922 strain; read-out: MIC, 25922
How it was run: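 Values are MICs (μg/mL): the smallest drug amount at which macroscopically visible bacterial growth is absent under assay conditions, from a microdilution method in broth.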

[11] = system: Klebsiella pneumoniae (K. pneumoniae) 35657; assay: Antibacterial activity, MIC (Table 4); assay type: cell-based; conditions: K. pneumoniae 35657, read-out: MIC, 35657
How it was run: as §2

Row | SMILES | MIC [1] [µg/mL] | MIC [2] [µg/mL] | MIC [3] [µg/mL] | MIC [4] [µg/mL] | MIC [5] [µg/mL] | MIC [6] [µg/mL] | MIC [7] [µg/mL] | MIC [8] [µg/mL] | MIC [9] [µg/mL] | MIC [10] [µg/mL] | MIC [11] [µg/mL]
1 | CCc1c(-c2ccc3c(c2)cc(CNC(CF)CF)n3C)[nH]c(=O)c(C(=O)O)c1O [Cpd 274, 6-(2-((1,3-difluoropropan-2-ylamino)methyl)-1-methyl-1H-indol-5-yl)-5-ethyl-4-hydroxy-2-oxo-1,2-dihydropyridine-3-carboxylic acid] | 12.5 to 150 (≈ 29.8 to 358 µM) | < 1 | 3.5 to 12.5 (≈ 8.34 to 29.8 µM) | 3.5 to 12.5 (≈ 8.34 to 29.8 µM) | 3.5 to 12.5 (≈ 8.34 to 29.8 µM) | 12.5 to 150 (≈ 29.8 to 358 µM) | 12.5 to 150 (≈ 29.8 to 358 µM) | 3.5 to 12.5 (≈ 8.34 to 29.8 µM) | 3.5 to 12.5 (≈ 8.34 to 29.8 µM) | 1 to 3.5 (≈ 2.38 to 8.34 µM) | –
2 | CCc1cc(C(=O)O)c(=O)[nH]c1-c1ccc2c(c1)cc(CCN1CCCCC1)n2C [Cpd 160, 5-ethyl-6-(1-methyl-2-(2-(piperidin-1-yl)ethyl)-1H-indol-5-yl)-2-oxo-1,2-dihydropyridine-3-carboxylic acid] | 12.5 to 150 (≈ 30.7 to 368 µM) | < 1 | 12.5 to 150 (≈ 30.7 to 368 µM) | 1 to 3.5 (≈ 2.45 to 8.59 µM) | 12.5 to 150 (≈ 30.7 to 368 µM) | 12.5 to 150 (≈ 30.7 to 368 µM) | 12.5 to 150 (≈ 30.7 to 368 µM) | 12.5 to 150 (≈ 30.7 to 368 µM) | 12.5 to 150 (≈ 30.7 to 368 µM) | < 1 | < 1
3 | CCc1cc(C(=O)O)c(=O)[nH]c1-c1ccc2c(c1)cc(CN1CCCCC1)n2C [Cpd 133, 5-ethyl-6-(1-methyl-2-(piperidin-1-ylmethyl)-1H-indol-5-yl)-2-oxo-1,2-dihydropyridine-3-carboxylic acid] | 12.5 to 150 (≈ 31.8 to 381 µM) | < 1 | 12.5 to 150 (≈ 31.8 to 381 µM) | 1 to 3.5 (≈ 2.54 to 8.89 µM) | 12.5 to 150 (≈ 31.8 to 381 µM) | 12.5 to 150 (≈ 31.8 to 381 µM) | 12.5 to 150 (≈ 31.8 to 381 µM) | 12.5 to 150 (≈ 31.8 to 381 µM) | 12.5 to 150 (≈ 31.8 to 381 µM) | < 1 | < 1
4 | CCc1c(-c2ccc3c(c2)cc(CN2CCCC2)n3C)[nH]c(=O)c(C(=O)O)c1O [Cpd 164, 5-ethyl-4-hydroxy-6-(1-methyl-2-(pyrrolidin-1-ylmethyl)-1H-indol-5-yl)-2-oxo-1,2-dihydropyridine-3-carboxylic acid] | 3.5 to 12.5 (≈ 8.85 to 31.6 µM) | < 1 | 3.5 to 12.5 (≈ 8.85 to 31.6 µM) | < 1 | 3.5 to 12.5 (≈ 8.85 to 31.6 µM) | 12.5 to 150 (≈ 31.6 to 379 µM) | 12.5 to 150 (≈ 31.6 to 379 µM) | 12.5 to 150 (≈ 31.6 to 379 µM) | 3.5 to 12.5 (≈ 8.85 to 31.6 µM) | < 1 | 3.5 to 12.5 (≈ 8.85 to 31.6 µM)
5 | CCc1c(-c2ccc3ccn(C)c3c2)[nH]c(=O)c(C(=O)O)c1O [Cpd 8, 5-ethyl-4-hydroxy-6-(1-methyl-1H-indol-6-yl)-2-oxo-1,2-dihydropyridine-3-carboxylic acid] | 12.5 to 150 (≈ 40 to 480 µM) | 1 to 3.5 (≈ 3.2 to 11.2 µM) | 3.5 to 12.5 (≈ 11.2 to 40 µM) | 12.5 to 150 (≈ 40 to 480 µM) | 12.5 to 150 (≈ 40 to 480 µM) | 12.5 to 150 (≈ 40 to 480 µM) | 12.5 to 150 (≈ 40 to 480 µM) | 12.5 to 150 (≈ 40 to 480 µM) | 3.5 to 12.5 (≈ 11.2 to 40 µM) | 12.5 to 150 (≈ 40 to 480 µM) | 12.5 to 150 (≈ 40 to 480 µM)
6 | CCc1cc(C(=O)O)c(=O)[nH]c1-c1ccc2c(c1)cc(CN1CCCC1C)n2C (stereo not drawn) [Cpd 130, 5-ethyl-6-(1-methyl-2-((2-methylpyrrolidin-1-yl)methyl)-1H-indol-5-yl)-2-oxo-1,2-dihydropyridine-3-carboxylic acid] | 12.5 to 150 (≈ 31.8 to 381 µM) | < 1 | 12.5 to 150 (≈ 31.8 to 381 µM) | 1 to 3.5 (≈ 2.54 to 8.89 µM) | 12.5 to 150 (≈ 31.8 to 381 µM) | 12.5 to 150 (≈ 31.8 to 381 µM) | 12.5 to 150 (≈ 31.8 to 381 µM) | 12.5 to 150 (≈ 31.8 to 381 µM) | 12.5 to 150 (≈ 31.8 to 381 µM) | < 1 | < 1
7 | CCc1c(-c2ccc3c(ccn3CCO)c2)[nH]c(=O)c(C(=O)O)c1O [Cpd 24, 5-ethyl-4-hydroxy-6-(1-(2-hydroxyethyl)-1H-indol-5-yl)-2-oxo-1,2-dihydropyridine-3-carboxylic acid] | – | < 1 | 3.5 to 12.5 (≈ 10.2 to 36.5 µM) | 3.5 to 12.5 (≈ 10.2 to 36.5 µM) | 12.5 to 150 (≈ 36.5 to 438 µM) | 12.5 to 150 (≈ 36.5 to 438 µM) | 12.5 to 150 (≈ 36.5 to 438 µM) | 12.5 to 150 (≈ 36.5 to 438 µM) | 12.5 to 150 (≈ 36.5 to 438 µM) | 3.5 to 12.5 (≈ 10.2 to 36.5 µM) | –
8 | CCc1c(-c2ccc3c(c2)cc(CN2CC(CO)C2)n3C)[nH]c(=O)c(C(=O)O)c1O [Cpd 271, 5-ethyl-4-hydroxy-6-(2-((3-(hydroxymethyl)azetidin-1-yl)methyl)-1-methyl-1H-indol-5-yl)-2-oxo-1,2-dihydropyridine-3-carboxylic acid] | 3.5 to 12.5 (≈ 8.51 to 30.4 µM) | < 1 | 12.5 to 150 (≈ 30.4 to 365 µM) | 1 to 3.5 (≈ 2.43 to 8.51 µM) | 12.5 to 150 (≈ 30.4 to 365 µM) | 12.5 to 150 (≈ 30.4 to 365 µM) | 12.5 to 150 (≈ 30.4 to 365 µM) | 3.5 to 12.5 (≈ 8.51 to 30.4 µM) | 3.5 to 12.5 (≈ 8.51 to 30.4 µM) | < 1 | –
